Data reported in patent US20030187067A1, “Use of anethole-dithiolethione for preventing and treating drug-induced tendon toxicity” (priority 2000, published 2003).

System: immortalised tenocytes, known as TENO (Teno Cell Line)
Assay: type II MIFALC (Microtitration Fluorimetric Assay on Living Cells) test, H2DCF-DA fluorescence, tendon toxicity of fluoroquinolones/statins
Assay type: cell-based
Conditions: pretreatment with anethole-dithiolethione 20 μM, 72 hours before contact with the xenobiotics; free radicals by H2DCF-DA fluorescence read after 40 minutes
Protocol: The test carried out is a type II MIFALC (Microtitration Fluorimetric Assay on Living Cells) test, that is to say that all of the steps, including detection/disclosure, are carried out on living cells, the test using fluorimetric detection under cold light, in order to achieve the maximum level of detection sensitivity and specificity necessary for the intracellular studies. The tests are carried out on a line of immortalised tenocytes, known as TENO (Teno Cell Line).
The cultures are produced in […] flasks for cell multiplication and in plates having 96 shallow wells for culture.
The tenocytes are placed in suspension with a small amount of trypsin. When the cells are released, the action of the trypsin is blocked by the addition of culture medium containing fetal calf serum. After centrifuging, the residue is taken up by complete medium HAM F-12, then the cells are counted using a Malassez or Thoma hemocytometer. Next, a solution of 27,500 cells/ml is prepared in the complete culture medium and 200 μl are placed in each of the central 60 wells of the microplates having 96 wells. Therefore, there are 5,500 cells per well. The plates are placed in incubation at 37° C. in a humid atmosphere of air/CO2 (95%/5%). The test is carried out after 48 hours when the cells adhere to the support. […]
The fluorescence units are read after 40 minutes.

COc1ccc(-c2cc(=S)ss2)cc1 [anethole-dithiolethione]
protection against tendon toxicity (cytotoxic effect) of fluoroquinolones in cellular tenocyte model: protects against this tendon toxicity
